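Interpolation was linear, between the two tested concentrations surrounding the appropriate level; five concentrations were tested over 48 hours in 96-well plates. GI50: concentration for 50% inhibition of growth.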 Activity calls are given as the source filed them. No stated cut-off is given here; in the data, active = GI50 up to about 1.1 µM and inactive = higher.
How the values were obtained:
Assay in all cases: NCI anticancer screen, dose series, 48 h
[1] = tested on: A498
[2] = tested on: A549
[3] = tested on: DU-145
[4] = tested on: EKVX
[5] = tested on: HCT-15
[6] = tested on: M14
[7] = tested on: Malme-3M
[8] = tested on: NCI-H226
[9] = tested on: NCI-H23
[10] = tested on: NCI/ADR-RES
[11] = tested on: OVCAR-3
[12] = tested on: OVCAR-5
[13] = tested on: SF-268
[14] = tested on: SF-539
[15] = tested on: SNB-19
[16] = tested on: SW-620
[17] = tested on: TK-10
[18] = tested on: U-251
[19] = tested on: UO-31
[20] = tested on: UACC-257

Row | Structure (SMILES) | GI50 [1] | GI50 [2] | GI50 [3] | GI50 [4] | GI50 [5] [µM] | GI50 [6] | GI50 [7] | GI50 [8] | GI50 [9] | GI50 [10] | GI50 [11] | GI50 [12] | GI50 [13] | GI50 [14] | GI50 [15] | GI50 [16] | GI50 [17] | GI50 [18] | GI50 [19] | GI50 [20]
1 | Cc1ccc2c(O)cc(-c3sccc3C)nc2n1 | 0.562 µM (active) | 0.612 µM (active) | 2.62 µM (inactive) | 4.43 µM (inactive) | 0.406 | 0.438 µM (active) | 0.463 µM (active) | 1.38 µM (inactive) | 0.337 µM (active) | 0.326 µM (active) | 0.653 µM (active) | 1.67 µM (inactive) | 1.86 µM (inactive) | 0.474 µM (active) | 0.78 µM (active) | 0.264 µM (active) | > 24.2 µM (inactive) | 0.832 µM (active) | 1.52 µM (inactive) | 
2 | C=C(Cl)/C(=C\Br)CCC(Cl)C(C)C.C=C(Cl)/C(=C\Cl)CCC(Cl)C(C)C (stereo unspecified) | 20.3 µM (inactive) | 28 µM (inactive) | 18 µM (inactive) | 18.7 µM (inactive) |  | 17.4 µM (inactive) | 15.1 µM (inactive) | 23.4 µM (inactive) | 14.6 µM (inactive) | 27.5 µM (inactive) | 16.5 µM (inactive) | 20.5 µM (inactive) | 18.6 µM (inactive) | 18.2 µM (inactive) | 17.6 µM (inactive) | 2.75 µM (inactive) | 19.8 µM (inactive) | 16.4 µM (inactive) | 18.2 µM (inactive) | 13.6 µM (inactive)
3 | Clc1ccc(OCc2nnc3sc(-c4ccc(-c5ccc(Cl)cc5Cl)o4)nn23)c(Cl)c1 | 17.4 µM (inactive) | 21.6 µM (inactive) | 23.4 µM (inactive) | 14.7 µM (inactive) | 20.7 | 25.5 µM (inactive) | 18.8 µM (inactive) | 20.4 µM (inactive) | 21.6 µM (inactive) | 20 µM (inactive) | 17.1 µM (inactive) | 20 µM (inactive) | 15.6 µM (inactive) | 14.8 µM (inactive) | 22.1 µM (inactive) | 34.7 µM (inactive) | 19.5 µM (inactive) | 19.8 µM (inactive) | 25.8 µM (inactive) | 18.4 µM (inactive)
4 | CCC1(O)CC(O)c2c(O)c3c(c(O)c2C1C(=O)OC)C(=O)c1cccc(O)c1C3=O (stereo unspecified) | 3.78 µM (inactive) | 3.64 µM (inactive) | 5.42 µM (inactive) | 2.18 µM (inactive) | 1.54 | 2.87 µM (inactive) | 1.94 µM (inactive) | 3.4 µM (inactive) | 3.29 µM (inactive) | 0.656 µM (active) | 2.05 µM (inactive) | 4.86 µM (inactive) | 2.44 µM (inactive) | 3.85 µM (inactive) | 2.45 µM (inactive) | 4.67 µM (inactive) | 7.67 µM (inactive) | 3.74 µM (inactive) | 3.18 µM (inactive) | 3.65 µM (inactive)
5 | COc1ccc2c(c1)Cc1c(NCCN(C)C)ccc(C(=O)NCCCN(C)CCCNC(=O)c3ccc(NCCN(C)C)c4c3Nc3ccc(OC)cc3C4)c1N2 | < 0.0404 µM (active) | < 0.01 µM (active) | < 0.01 µM (active) | 0.116 µM (active) | 0.728 | 0.15 µM (active) | < 0.01 µM (active) | < 0.0254 µM (active) | < 0.0212 µM (active) | 4.2 µM (inactive) | < 0.0187 µM (active) | < 0.0248 µM (active) | < 0.01 µM (active) | 0.209 µM (active) | < 0.01 µM (active) | < 0.0158 µM (active) | 0.0724 µM (active) | < 0.01 µM (active) | 0.362 µM (active) | 0.0303 µM (active)
6 | O=C1CC2(CCC(O)(c3cccc4ccccc34)C(C(=O)c3cccc4ccccc34)C2)C(=O)c2ccccc2N1 (stereo unspecified) | > 100 µM (inactive) | > 100 µM (inactive) | 25.8 µM (inactive) | 28.9 µM (inactive) | 26.4 | 29.8 µM (inactive) | > 100 µM (inactive) | > 100 µM (inactive) | 62.2 µM (inactive) | > 100 µM (inactive) | 39.9 µM (inactive) | 71.8 µM (inactive) | 15.7 µM (inactive) | 48 µM (inactive) | 5.09 µM (inactive) | 24.2 µM (inactive) | 29.1 µM (inactive) | 11.1 µM (inactive) | 23.7 µM (inactive) | > 100 µM (inactive)
7 | CC(C)=CCc1c(O)c(CC2=C(O)C(CC=C(C)C)(C(=O)C(C)C)C(O)=C(C)C2=O)c(O)c(C(=O)C(C)C)c1O (stereo unspecified) | 9.57 µM (inactive) | 14.1 µM (inactive) | 18.9 µM (inactive) | 17.7 µM (inactive) | 11.7 | 11.4 µM (inactive) | 8.02 µM (inactive) | 7.93 µM (inactive) | 8.43 µM (inactive) | 10.6 µM (inactive) | 12.2 µM (inactive) | 11.9 µM (inactive) | 9.86 µM (inactive) | 13.8 µM (inactive) | 7.73 µM (inactive) | 24 µM (inactive) | 13.2 µM (inactive) | 12.4 µM (inactive) | 7.59 µM (inactive) | 11.5 µM (inactive)
8 | CS(=O)(=O)OCCCNCCCOS(C)(=O)=O | 1330 µM (inactive) | 741 µM (inactive) | 627 µM (inactive) | 1810 µM (inactive) | 1460 | 753 µM (inactive) | 1590 µM (inactive) | 1680 µM (inactive) | 904 µM (inactive) | 1600 µM (inactive) | 2630 µM (inactive) | 2130 µM (inactive) | 879 µM (inactive) | 1270 µM (inactive) | 1270 µM (inactive) | 1140 µM (inactive) | 2020 µM (inactive) | 893 µM (inactive) | 1990 µM (inactive) | 1850 µM (inactive)
9 | CC1(C)C=CC(=O)C(O)C(C)(C)C1=O (stereo unspecified) | > 100 µM (inactive) | > 100 µM (inactive) | > 100 µM (inactive) | > 100 µM (inactive) | 51.2 | > 100 µM (inactive) | 17.5 µM (inactive) | > 100 µM (inactive) | 76.7 µM (inactive) | 72.4 µM (inactive) | 29.1 µM (inactive) | > 100 µM (inactive) | 30.1 µM (inactive) | 73.6 µM (inactive) | > 100 µM (inactive) | 77.6 µM (inactive) | 51.5 µM (inactive) | > 100 µM (inactive) | > 100 µM (inactive) | 18.8 µM (inactive)
10 | CC(=O)[C@H]1CC[C@@H]2[C@]1(C)CC=C1[C@]23C=C[C@]2(C[C@@H](O)CC[C@]12C)C(C(=O)O)C3C(=O)O (stereo partly specified) | > 100 µM (inactive) | > 100 µM (inactive) | > 100 µM (inactive) | > 100 µM (inactive) | > 100 | > 100 µM (inactive) | > 100 µM (inactive) | > 100 µM (inactive) | > 100 µM (inactive) | > 100 µM (inactive) | > 100 µM (inactive) | > 100 µM (inactive) | > 100 µM (inactive) | > 100 µM (inactive) | > 100 µM (inactive) | > 100 µM (inactive) | > 100 µM (inactive) | > 100 µM (inactive) | > 100 µM (inactive) | > 100 µM (inactive)
11 | CN(C)c1nc(-c2ccccc2)c(C(=O)c2c[nH]c3ccccc23)s1 | 9.98 µM (inactive) | 6.62 µM (inactive) | 34.2 µM (inactive) | 26 µM (inactive) | 3.9 | 4.59 µM (inactive) | 11.2 µM (inactive) | > 25.7 µM (inactive) | 30 µM (inactive) | 3.06 µM (inactive) | 5.04 µM (inactive) | > 24.3 µM (inactive) | 9.2 µM (inactive) | 10.7 µM (inactive) | 14.8 µM (inactive) | 5.24 µM (inactive) | 7.53 µM (inactive) | 5.66 µM (inactive) | 11.2 µM (inactive) | 6.71 µM (inactive)
12 | CNC(=S)N/N=C(\C)c1nc2cccnc2[nH]1 | > 100 µM (inactive) | 31.1 µM (inactive) | 55.2 µM (inactive) | 47 µM (inactive) | 29.2 | 45.2 µM (inactive) | > 70.5 µM (inactive) | 38.1 µM (inactive) |  | 15.3 µM (inactive) | 18.6 µM (inactive) | 30.8 µM (inactive) | 37.7 µM (inactive) | 27.7 µM (inactive) | > 53.8 µM (inactive) | 52.8 µM (inactive) | 32.5 µM (inactive) | 39.8 µM (inactive) | 9.25 µM (inactive) | 60.8 µM (inactive)
13 | CCOC(=O)/C(SC#N)=C(/N)N1CCCC1 | > 60 µM (inactive) | > 100 µM (inactive) | > 100 µM (inactive) | > 100 µM (inactive) | > 100 | > 100 µM (inactive) | > 100 µM (inactive) | > 100 µM (inactive) | > 100 µM (inactive) | > 100 µM (inactive) | > 100 µM (inactive) | > 100 µM (inactive) | > 100 µM (inactive) | > 100 µM (inactive) | > 100 µM (inactive) | > 100 µM (inactive) | > 100 µM (inactive) | > 100 µM (inactive) | > 100 µM (inactive) | > 100 µM (inactive)
14 | CC(NNC(=O)c1cc[n+]([BH2-]C#N)cc1)c1ccc(Cl)cc1Cl (stereo unspecified) | > 100 µM (inactive) | 37.2 µM (inactive) | 68.5 µM (inactive) | 24.5 µM (inactive) | 44.8 | 42.4 µM (inactive) | 43.9 µM (inactive) | 14.2 µM (inactive) |  | 31.6 µM (inactive) | 25 µM (inactive) | 42.2 µM (inactive) | 41.2 µM (inactive) | 53.7 µM (inactive) | 41.4 µM (inactive) | 42.8 µM (inactive) | 48.6 µM (inactive) | 48.2 µM (inactive) | 26.2 µM (inactive) | 42.1 µM (inactive)
